Results from ChEMBL document CHEMBL1909046, “DrugMatrix in vitro pharmacology data”.

Columns and labels:
[1] = molecular target: Substance-P receptor (Homo sapiens, UniProt P25103); type: cell membranes, CHO, Membrane; details: cho; further: in other assays of this panel Not Active means under 50% inhibition at 10 µM
[2] = molecular target: Insulin receptor (Rattus norvegicus, UniProt P15127); type: cell membranes, Wistar, Liver, Membrane; further: in other assays of this panel Not Active means under 50% inhibition at 10 µM
Insulin receptor, sequence (P15127 27-759 limits assumed): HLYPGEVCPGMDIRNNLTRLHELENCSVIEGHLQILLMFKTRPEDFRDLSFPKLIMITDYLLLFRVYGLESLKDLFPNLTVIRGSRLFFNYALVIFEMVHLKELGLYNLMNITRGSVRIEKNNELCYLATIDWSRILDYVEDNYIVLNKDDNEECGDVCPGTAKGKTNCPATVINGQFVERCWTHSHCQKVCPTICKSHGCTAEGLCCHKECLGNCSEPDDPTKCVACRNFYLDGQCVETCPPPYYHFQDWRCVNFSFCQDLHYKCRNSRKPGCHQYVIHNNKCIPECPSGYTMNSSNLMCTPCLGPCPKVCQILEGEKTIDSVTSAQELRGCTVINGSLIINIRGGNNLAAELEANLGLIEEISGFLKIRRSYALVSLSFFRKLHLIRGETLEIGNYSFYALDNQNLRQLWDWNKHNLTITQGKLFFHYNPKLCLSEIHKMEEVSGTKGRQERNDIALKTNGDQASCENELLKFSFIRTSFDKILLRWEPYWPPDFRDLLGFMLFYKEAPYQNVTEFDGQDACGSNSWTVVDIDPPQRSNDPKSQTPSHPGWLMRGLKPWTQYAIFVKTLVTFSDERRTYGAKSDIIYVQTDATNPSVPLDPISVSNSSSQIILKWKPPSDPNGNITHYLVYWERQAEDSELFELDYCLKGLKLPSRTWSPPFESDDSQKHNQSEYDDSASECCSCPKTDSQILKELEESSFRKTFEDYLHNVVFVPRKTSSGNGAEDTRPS
Insulin receptor, sequence (P15127 764-1383 limits assumed): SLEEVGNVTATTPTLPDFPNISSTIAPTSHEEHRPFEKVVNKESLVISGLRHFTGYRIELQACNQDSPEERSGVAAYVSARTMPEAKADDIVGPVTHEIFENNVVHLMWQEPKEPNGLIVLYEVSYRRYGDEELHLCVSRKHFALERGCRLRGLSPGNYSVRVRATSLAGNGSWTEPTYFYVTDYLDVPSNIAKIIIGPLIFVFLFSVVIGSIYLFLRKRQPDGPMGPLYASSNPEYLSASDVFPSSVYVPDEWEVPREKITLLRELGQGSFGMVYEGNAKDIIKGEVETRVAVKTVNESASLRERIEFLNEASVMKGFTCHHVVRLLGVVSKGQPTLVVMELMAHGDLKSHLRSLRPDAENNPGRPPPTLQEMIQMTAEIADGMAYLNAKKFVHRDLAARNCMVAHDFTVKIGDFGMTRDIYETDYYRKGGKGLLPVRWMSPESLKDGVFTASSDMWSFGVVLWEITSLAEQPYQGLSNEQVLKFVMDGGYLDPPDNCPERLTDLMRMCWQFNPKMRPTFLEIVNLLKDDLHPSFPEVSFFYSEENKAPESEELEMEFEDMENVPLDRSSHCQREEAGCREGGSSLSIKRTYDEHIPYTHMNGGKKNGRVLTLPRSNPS

[3] = molecular target: Voltage-gated inwardly rectifying potassium channel KCNH2 (Homo sapiens, UniProt Q12809); details: hek293; further: in other assays of this panel Not Active means under 50% inhibition at 10 µM
Voltage-gated inwardly rectifying potassium channel KCNH2, sequence (Q12809 whole entry): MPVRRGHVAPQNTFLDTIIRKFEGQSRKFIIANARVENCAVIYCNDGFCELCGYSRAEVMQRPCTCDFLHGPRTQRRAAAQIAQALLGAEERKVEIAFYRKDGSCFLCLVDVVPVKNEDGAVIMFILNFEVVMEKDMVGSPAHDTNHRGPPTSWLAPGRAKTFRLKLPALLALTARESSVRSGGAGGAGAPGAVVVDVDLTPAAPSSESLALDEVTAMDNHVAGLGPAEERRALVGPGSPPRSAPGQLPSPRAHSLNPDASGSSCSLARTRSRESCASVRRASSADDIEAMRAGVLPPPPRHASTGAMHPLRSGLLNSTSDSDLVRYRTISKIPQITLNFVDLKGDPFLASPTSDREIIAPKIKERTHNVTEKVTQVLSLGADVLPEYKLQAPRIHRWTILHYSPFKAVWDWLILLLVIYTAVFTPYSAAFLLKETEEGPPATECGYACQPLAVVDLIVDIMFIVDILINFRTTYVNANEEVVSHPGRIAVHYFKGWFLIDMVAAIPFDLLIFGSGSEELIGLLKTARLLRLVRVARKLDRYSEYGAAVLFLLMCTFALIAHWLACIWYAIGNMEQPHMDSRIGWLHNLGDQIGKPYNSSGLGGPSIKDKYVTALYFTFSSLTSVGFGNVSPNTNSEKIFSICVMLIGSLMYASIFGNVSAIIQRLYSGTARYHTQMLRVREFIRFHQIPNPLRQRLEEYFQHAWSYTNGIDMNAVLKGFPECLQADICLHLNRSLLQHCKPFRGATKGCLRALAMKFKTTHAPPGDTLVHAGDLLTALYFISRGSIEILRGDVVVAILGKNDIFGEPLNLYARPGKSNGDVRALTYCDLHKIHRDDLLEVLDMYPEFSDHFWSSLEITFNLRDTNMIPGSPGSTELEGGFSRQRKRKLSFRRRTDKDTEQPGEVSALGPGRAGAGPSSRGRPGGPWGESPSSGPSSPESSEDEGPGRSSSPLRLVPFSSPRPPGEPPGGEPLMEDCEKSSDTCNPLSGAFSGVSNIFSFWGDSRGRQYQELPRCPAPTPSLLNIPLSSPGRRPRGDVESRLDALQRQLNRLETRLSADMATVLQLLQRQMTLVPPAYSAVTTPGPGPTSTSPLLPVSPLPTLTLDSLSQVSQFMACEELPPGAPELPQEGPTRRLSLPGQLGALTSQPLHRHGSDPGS

[4] = molecular target: Nitric oxide synthase 1 (Rattus norvegicus, UniProt P29476); type: tissue-based, Cerebellum; further: in other assays of this panel Not Active means under 50% inhibition at 10 µM
Nitric oxide synthase 1, sequence (P29476 whole entry): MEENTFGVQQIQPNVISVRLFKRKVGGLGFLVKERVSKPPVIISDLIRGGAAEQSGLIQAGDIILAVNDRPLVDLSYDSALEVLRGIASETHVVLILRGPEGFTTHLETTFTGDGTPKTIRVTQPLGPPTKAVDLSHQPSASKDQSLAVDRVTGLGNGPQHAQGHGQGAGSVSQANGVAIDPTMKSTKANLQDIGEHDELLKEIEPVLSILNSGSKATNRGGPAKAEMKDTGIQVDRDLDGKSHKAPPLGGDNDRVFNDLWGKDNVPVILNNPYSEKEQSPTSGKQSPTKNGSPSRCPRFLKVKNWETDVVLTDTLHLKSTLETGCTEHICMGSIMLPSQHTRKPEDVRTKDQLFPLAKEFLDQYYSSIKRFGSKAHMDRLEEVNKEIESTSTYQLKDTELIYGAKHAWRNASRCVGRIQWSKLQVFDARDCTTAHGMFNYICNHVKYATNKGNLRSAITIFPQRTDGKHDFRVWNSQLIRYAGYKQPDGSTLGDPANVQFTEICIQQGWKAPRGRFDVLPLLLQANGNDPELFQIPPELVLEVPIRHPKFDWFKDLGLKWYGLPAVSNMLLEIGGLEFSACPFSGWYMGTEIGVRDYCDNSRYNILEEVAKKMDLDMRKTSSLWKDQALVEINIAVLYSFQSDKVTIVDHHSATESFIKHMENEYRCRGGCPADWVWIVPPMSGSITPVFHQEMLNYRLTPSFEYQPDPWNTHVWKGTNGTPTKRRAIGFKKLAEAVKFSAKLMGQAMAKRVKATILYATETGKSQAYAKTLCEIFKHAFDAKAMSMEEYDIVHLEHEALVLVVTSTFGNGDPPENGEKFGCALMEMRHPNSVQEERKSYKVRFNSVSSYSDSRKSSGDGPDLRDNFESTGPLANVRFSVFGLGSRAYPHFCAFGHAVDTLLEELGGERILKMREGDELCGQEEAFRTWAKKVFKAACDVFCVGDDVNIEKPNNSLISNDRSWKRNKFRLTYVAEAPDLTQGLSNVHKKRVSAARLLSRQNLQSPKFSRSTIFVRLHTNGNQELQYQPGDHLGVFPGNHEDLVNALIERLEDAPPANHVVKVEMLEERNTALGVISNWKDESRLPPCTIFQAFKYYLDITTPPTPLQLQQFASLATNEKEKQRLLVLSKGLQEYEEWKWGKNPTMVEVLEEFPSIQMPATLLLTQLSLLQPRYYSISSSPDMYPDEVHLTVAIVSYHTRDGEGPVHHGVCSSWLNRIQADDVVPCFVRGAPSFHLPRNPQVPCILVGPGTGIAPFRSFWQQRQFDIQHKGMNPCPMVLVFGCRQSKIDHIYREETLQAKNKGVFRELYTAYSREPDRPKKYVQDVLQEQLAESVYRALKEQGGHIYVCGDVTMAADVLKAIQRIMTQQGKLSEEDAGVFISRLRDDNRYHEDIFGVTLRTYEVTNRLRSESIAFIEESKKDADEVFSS

[5] = DRUGMATRIX: Imidazoline I2, Central radioligand binding (ligand: [3H] Idazoxan); type: cell membranes, Rattus norvegicus, Wistar, Cerebral cortex, Membrane; details: Not Active = under 50% inhibition at 10 µM
[6] = DRUGMATRIX: Potassium Channel [KATP] radioligand binding (ligand: [3H] Glyburide); type: cell membranes, Membrane; details: hit-t15; Not Active = under 50% inhibition at 10 µM
[7] = molecular target: T1, C-X-C chemokine receptor type 1 (Homo sapiens, UniProt P25024); further: in other assays of this panel Not Active means under 50% inhibition at 10 µM
T1 sequence (P25024 whole entry): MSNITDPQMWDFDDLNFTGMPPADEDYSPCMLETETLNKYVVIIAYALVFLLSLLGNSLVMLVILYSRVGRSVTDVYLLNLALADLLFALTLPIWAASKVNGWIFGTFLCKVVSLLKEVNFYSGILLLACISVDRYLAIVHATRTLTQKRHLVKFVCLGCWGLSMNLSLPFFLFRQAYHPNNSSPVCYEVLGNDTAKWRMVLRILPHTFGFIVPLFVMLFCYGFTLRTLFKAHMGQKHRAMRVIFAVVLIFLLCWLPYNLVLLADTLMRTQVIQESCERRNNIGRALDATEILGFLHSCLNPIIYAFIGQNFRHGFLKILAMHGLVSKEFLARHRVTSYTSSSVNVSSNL

Substance-P receptor, sequence (P25103 whole entry): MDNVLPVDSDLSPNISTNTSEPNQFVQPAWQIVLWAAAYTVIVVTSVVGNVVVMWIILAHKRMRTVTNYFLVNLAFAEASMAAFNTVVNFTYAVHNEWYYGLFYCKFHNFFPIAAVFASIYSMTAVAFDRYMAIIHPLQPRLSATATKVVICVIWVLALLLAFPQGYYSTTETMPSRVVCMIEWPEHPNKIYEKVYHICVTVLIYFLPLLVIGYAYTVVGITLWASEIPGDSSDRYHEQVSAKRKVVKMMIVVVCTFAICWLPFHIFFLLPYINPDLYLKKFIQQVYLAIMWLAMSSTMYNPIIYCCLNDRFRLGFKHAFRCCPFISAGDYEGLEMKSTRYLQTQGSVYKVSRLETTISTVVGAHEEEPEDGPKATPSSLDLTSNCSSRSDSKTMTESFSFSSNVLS

O=c1[nH]c(=O)n([C@H]2C[C@H](O)[C@@H](CO)O2)cc1F [FLOXURIDINE]
Not Active: IC50 [1] | IC50 [2] | IC50 [3] | Ki [3] | IC50 [4] | IC50 [5] | Ki [5] | IC50 [6] | Ki [6] | IC50 [7]

O=C(O)CC(O)(CC(=O)O)C(=O)O [CITRIC ACID]
Not Active: IC50 [1] | IC50 [2] | IC50 [3] | Ki [3] | IC50 [4] | IC50 [5] | Ki [5] | IC50 [6] | Ki [6] | IC50 [7]

Cc1cc(O)cc(C)c1Cl [CHLOROXYLENOL]
Not Active: IC50 [1] | IC50 [2] | IC50 [3] | Ki [3] | IC50 [4] | IC50 [5] | Ki [5] | IC50 [6] | Ki [6] | IC50 [7]

O=C(O)CCCc1cccs1
Not Active: IC50 [1] | IC50 [2] | IC50 [3] | Ki [3] | IC50 [4] | IC50 [5] | Ki [5] | IC50 [6] | Ki [6] | IC50 [7]

CCCNC(=O)NS(=O)(=O)c1ccc(Cl)cc1 [CHLORPROPAMIDE]
Not Active: IC50 [1] | IC50 [2] | IC50 [3] | Ki [3] | IC50 [4] | IC50 [5] | Ki [5] | IC50 [6] | Ki [6] | IC50 [7]

CC(=O)OC[C@H]1O[C@@H](n2ncc(=O)[nH]c2=O)[C@H](OC(C)=O)[C@@H]1OC(C)=O [AZARIBINE]
Not Active: IC50 [1] | IC50 [2] | IC50 [3] | Ki [3] | IC50 [4] | IC50 [5] | Ki [5] | IC50 [6] | Ki [6] | IC50 [7]

NCCCNCCSP(=O)(O)O [AMIFOSTINE]
Not Active: IC50 [1] | IC50 [2] | IC50 [3] | Ki [3] | IC50 [4] | IC50 [5] | Ki [5] | IC50 [6] | Ki [6] | IC50 [7]

CC(C)(C)NCC(O)COc1cccc2c1CC(O)C(O)C2 (stereo not given) [NADOLOL]
Not Active: IC50 [1] | IC50 [2] | IC50 [3] | Ki [3] | IC50 [4] | IC50 [5] | Ki [5] | IC50 [6] | Ki [6] | IC50 [7]

C[C@H]1COc2c(N3CCN(C)CC3)c(F)cc3c(=O)c(C(=O)O)cn1c23.C[C@H]1COc2c(N3CCN(C)CC3)c(F)cc3c(=O)c(C(=O)O)cn1c23.O [LEVOFLOXACIN]
Not Active: IC50 [1] | IC50 [2] | IC50 [3] | Ki [3] | IC50 [4] | IC50 [5] | Ki [5] | IC50 [6] | Ki [6] | IC50 [7]

COc1ccnc(C[S+]([O-])c2nc3ccc(OC(F)F)cc3[nH]2)c1OC (stereo not given) [PANTOPRAZOLE]
Not Active: IC50 [1] | IC50 [2] | IC50 [3] | Ki [3] | IC50 [4] | IC50 [5] | Ki [5] | IC50 [6] | Ki [6] | IC50 [7]

CCCCC1=NC2(CCCC2)C(=O)N1Cc1ccc(-c2ccccc2-c2nnn[nH]2)cc1 [IRBESARTAN]
Not Active: IC50 [1] | IC50 [2] | IC50 [3] | Ki [3] | IC50 [4] | IC50 [5] | Ki [5] | IC50 [6] | Ki [6] | IC50 [7]

COC(=O)Nc1nc2cc(C(=O)c3ccc(F)cc3)ccc2[nH]1 [FLUBENDAZOLE]
Not Active: IC50 [1] | IC50 [2] | IC50 [3] | Ki [3] | IC50 [4] | IC50 [5] | Ki [5] | IC50 [6] | Ki [6] | IC50 [7]

Cc1ccc(C)c(OCCCC(C)(C)C(=O)O)c1 [GEMFIBROZIL]
Not Active: IC50 [1] | IC50 [2] | IC50 [3] | Ki [3] | IC50 [4] | IC50 [5] | Ki [5] | IC50 [6] | Ki [6] | IC50 [7]

C[N+](C)(C)C[C@H](O)CC(=O)[O-] [LEVOCARNITINE]
Not Active: IC50 [1] | IC50 [2] | IC50 [3] | Ki [3] | IC50 [4] | IC50 [5] | Ki [5] | IC50 [6] | Ki [6] | IC50 [7]

CNC1=Nc2ccc(Cl)cc2C(c2ccccc2)=[N+]([O-])C1 [CHLORDIAZEPOXIDE]
Not Active: IC50 [1] | IC50 [2] | IC50 [3] | Ki [3] | IC50 [4] | IC50 [5] | Ki [5] | IC50 [6] | Ki [6] | IC50 [7]

CC(O)COC[C@H]1O[C@@H]2O[C@H]3[C@H](O)[C@@H](O)[C@@H](O[C@H]4[C@H](O)[C@@H](O)[C@@H](O[C@H]5[C@H](O)[C@@H](O)[C@@H](O[C@H]6[C@H](O)[C@@H](O)[C@@H](O[C@H]7[C@H](O)[C@@H](O)[C@@H](O[C@H]8[C@H](O)[C@@H](O)[C@@H](O[C@H]1[C@H](O)[C@H]2O)O[C@@H]8COCC(C)O)O[C@@H]7COCC(C)O)O[C@@H]6COCC(C)O)O[C@@H]5COCC(C)O)O[C@@H]4COCC(C)O)O[C@@H]3COCC(C)O (stereo partly drawn) [2-HYDROXYPROPYL-BETA-CYCLODEXTRIN]
Not Active: IC50 [1] | IC50 [2] | IC50 [3] | Ki [3] | IC50 [4] | IC50 [5] | Ki [5] | IC50 [6] | Ki [6] | IC50 [7]

C[C@]12CC[C@@H]3c4ccc(O)cc4CC[C@H]3[C@@H]1C[C@@H](O)[C@@H]2O [ESTRIOL]
Not Active: IC50 [1] | IC50 [2] | IC50 [3] | Ki [3] | IC50 [4] | IC50 [5] | Ki [5] | IC50 [6] | Ki [6] | IC50 [7]

O=C(O)P(=O)(O)O [FOSCARNET]
Not Active: IC50 [1] | IC50 [2] | IC50 [3] | Ki [3] | IC50 [4] | IC50 [5] | Ki [5] | IC50 [6] | Ki [6] | IC50 [7]

CC1=NN(c2ccccc2)C(=O)C1 [EDARAVONE]
Not Active: IC50 [1] | IC50 [2] | IC50 [3] | Ki [3] | IC50 [4] | IC50 [5] | Ki [5] | IC50 [6] | Ki [6] | IC50 [7]

CCCNC(C)C(=O)Nc1ccccc1C (stereo not given) [PRILOCAINE]
Not Active: IC50 [1] | IC50 [2] | IC50 [3] | Ki [3] | IC50 [4] | IC50 [5] | Ki [5] | IC50 [6] | Ki [6] | IC50 [7]
